Assays:
[1] = biological target: voltage-gated sodium channel Nav1.5 (Homo sapiens (Human), UniProt Q14524); assay: Nav1.5 screening assay, IonWorks Quattro automated patch-clamp electrophysiology; assay type: cell-based; conditions: stable cell line expressing Nav1.5; holding potential −120 mV; compound incubation 5 minutes; IC50 fitted to percent block; read-out: Nav 1.5 IC50
Procedure: (§1) Assay Procedure Nav1.7 and Nav1.5 Screening Assay
(§2) Stable cell lines expressing the full-length protein of the voltage-gated sodium channels Nav1.7 or Nav1.5, with or without one beta-1, beta-2, beta-3, or beta-4 subunit, are created by transfected CHO cells or HEK293 cells, or any other suitable cell line, with a vector construct containing the complete open reading frame under a suitable promoter, as well known in the art.
(§3) Electrophysiological studies are performed with an IonWorks Quattro (Molecular Devices Corp.) automated patch-clamp electrophysiology platform as described by (Schroeder K et al. Journal of Biomolecular Screening 2003, 8 (1), 50-64). Buffers for the experiments have the following composition (mM): Internal solution; K-gluconate 100, KCl 40, MgCl2 3.2, HEPES 5, EGTA 3, pH 7.3. To this amphotericin B is added to final concentration of 0.1 mg/ml to generate access solution. External solution; Dulbecco's Phosphate buffered saline (D-PBS) NaCl 137.93, KCl 2.67, KH2PO4 1.47, Na2HPO4 8.06, CaCl2 0.90, MgCl2 0.49. Prior to the experiment the cells expressing the voltage-gated ion channel of interest are detached from the tissue culture flasks, centrifuged and resuspended in D-PBS. Compounds are prepared and serially diluted in DMSO and finally diluted 1:100 in D-PBS. Cells are exposed to compounds through the pipetting system integrated into the platform and the voltage-gated ion channel of interest is activated with specific voltage stimulation protocols. The following voltage stimulation protocol is used for testing compounds against the voltage-gated sodium channel Nav1.7; from a holding potential of −100 mV a train of eight 60 ms depolarising steps to −20 mV at a frequency of 14 Hz are employed followed by a further step to −20 mV for 2000 ms. After which the voltage is returned to −100 mV for 10 ms before another voltage step to −20 mV for 60 ms is applied. The following voltage stimulation protocol is used for testing compounds against the voltage-gated sodium channel Nav1.5; from a holding potential of −120 mV a train of twenty-six 120 ms depolarising steps to −20 mV at a frequency of 5 Hz are employed. Recordings are made before and after compound addition with the compound incubation time being 5 minutes.
(§4) Percent block was calculated for each concentration in duplicate for peak 1 and peak 10 and peak 1 and 25 for Nav 1.7 and Nav 1.5 respectively in order to assess compound activity at close and inactivated states and IC50 curves were fitted to percent block as a function of concentration.

[2] = biological target: voltage-gated sodium channel Nav1.7 (Homo sapiens (Human), UniProt Q15858); assay: Nav1.7 screening assay, IonWorks Quattro automated patch-clamp electrophysiology; assay type: cell-based; conditions: stable cell line expressing Nav1.7; holding potential −100 mV; compound incubation 5 minutes; IC50 fitted to percent block; read-out: Nav 1.7 IC50
Procedure: as §1, §2, §3, §4

Sequence of voltage-gated sodium channel Nav1.5 (Q14524 whole entry): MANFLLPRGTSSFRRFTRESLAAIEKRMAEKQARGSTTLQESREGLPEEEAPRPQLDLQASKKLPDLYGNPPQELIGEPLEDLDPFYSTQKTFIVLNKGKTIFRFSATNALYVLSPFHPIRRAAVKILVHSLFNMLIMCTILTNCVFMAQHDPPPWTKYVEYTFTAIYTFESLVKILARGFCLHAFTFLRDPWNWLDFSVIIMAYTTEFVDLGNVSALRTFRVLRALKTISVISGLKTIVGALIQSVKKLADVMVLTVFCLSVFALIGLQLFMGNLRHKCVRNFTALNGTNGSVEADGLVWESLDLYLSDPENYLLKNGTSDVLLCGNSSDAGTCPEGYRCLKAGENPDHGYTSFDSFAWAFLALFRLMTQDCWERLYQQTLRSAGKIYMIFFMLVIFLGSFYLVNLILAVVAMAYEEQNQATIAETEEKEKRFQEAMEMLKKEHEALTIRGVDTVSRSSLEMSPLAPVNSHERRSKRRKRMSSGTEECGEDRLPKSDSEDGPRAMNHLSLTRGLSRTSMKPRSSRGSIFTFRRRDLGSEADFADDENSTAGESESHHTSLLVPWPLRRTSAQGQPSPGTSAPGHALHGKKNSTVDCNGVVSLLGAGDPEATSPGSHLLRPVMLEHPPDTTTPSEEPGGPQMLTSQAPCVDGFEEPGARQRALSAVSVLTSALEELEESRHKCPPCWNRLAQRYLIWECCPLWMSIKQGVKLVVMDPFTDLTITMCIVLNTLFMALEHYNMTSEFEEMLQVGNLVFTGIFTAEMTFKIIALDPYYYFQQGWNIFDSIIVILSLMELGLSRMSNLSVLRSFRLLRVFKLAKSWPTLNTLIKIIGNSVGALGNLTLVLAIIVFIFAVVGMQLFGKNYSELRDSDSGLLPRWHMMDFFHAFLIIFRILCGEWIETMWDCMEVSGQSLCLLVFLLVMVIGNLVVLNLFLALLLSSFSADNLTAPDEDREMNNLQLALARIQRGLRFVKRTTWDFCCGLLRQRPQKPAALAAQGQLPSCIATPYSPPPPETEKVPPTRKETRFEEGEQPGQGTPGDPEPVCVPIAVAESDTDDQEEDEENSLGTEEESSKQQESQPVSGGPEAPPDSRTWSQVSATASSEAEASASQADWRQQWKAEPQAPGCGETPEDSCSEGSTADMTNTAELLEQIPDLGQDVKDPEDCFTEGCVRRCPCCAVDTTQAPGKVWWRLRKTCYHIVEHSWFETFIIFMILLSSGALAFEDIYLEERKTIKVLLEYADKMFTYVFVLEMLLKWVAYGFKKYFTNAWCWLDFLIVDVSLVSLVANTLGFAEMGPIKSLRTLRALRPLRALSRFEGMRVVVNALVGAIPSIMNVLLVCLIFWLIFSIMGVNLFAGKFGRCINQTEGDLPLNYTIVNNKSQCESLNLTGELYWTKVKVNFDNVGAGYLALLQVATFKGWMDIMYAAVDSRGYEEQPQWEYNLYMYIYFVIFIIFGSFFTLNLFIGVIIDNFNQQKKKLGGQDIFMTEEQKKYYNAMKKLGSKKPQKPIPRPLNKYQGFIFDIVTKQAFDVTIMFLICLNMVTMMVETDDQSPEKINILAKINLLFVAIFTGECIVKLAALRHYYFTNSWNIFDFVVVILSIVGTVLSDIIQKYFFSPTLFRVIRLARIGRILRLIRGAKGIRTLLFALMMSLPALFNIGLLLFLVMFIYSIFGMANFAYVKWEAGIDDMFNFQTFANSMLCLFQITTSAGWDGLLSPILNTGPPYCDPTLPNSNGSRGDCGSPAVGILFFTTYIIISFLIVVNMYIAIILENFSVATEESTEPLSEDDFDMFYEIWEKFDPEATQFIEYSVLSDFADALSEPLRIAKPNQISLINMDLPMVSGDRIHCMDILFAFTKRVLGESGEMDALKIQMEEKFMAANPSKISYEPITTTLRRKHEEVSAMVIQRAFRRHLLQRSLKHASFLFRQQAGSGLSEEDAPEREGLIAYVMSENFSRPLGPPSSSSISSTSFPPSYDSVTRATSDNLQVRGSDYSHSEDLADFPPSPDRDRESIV
Sequence of voltage-gated sodium channel Nav1.7 (Q15858 whole entry): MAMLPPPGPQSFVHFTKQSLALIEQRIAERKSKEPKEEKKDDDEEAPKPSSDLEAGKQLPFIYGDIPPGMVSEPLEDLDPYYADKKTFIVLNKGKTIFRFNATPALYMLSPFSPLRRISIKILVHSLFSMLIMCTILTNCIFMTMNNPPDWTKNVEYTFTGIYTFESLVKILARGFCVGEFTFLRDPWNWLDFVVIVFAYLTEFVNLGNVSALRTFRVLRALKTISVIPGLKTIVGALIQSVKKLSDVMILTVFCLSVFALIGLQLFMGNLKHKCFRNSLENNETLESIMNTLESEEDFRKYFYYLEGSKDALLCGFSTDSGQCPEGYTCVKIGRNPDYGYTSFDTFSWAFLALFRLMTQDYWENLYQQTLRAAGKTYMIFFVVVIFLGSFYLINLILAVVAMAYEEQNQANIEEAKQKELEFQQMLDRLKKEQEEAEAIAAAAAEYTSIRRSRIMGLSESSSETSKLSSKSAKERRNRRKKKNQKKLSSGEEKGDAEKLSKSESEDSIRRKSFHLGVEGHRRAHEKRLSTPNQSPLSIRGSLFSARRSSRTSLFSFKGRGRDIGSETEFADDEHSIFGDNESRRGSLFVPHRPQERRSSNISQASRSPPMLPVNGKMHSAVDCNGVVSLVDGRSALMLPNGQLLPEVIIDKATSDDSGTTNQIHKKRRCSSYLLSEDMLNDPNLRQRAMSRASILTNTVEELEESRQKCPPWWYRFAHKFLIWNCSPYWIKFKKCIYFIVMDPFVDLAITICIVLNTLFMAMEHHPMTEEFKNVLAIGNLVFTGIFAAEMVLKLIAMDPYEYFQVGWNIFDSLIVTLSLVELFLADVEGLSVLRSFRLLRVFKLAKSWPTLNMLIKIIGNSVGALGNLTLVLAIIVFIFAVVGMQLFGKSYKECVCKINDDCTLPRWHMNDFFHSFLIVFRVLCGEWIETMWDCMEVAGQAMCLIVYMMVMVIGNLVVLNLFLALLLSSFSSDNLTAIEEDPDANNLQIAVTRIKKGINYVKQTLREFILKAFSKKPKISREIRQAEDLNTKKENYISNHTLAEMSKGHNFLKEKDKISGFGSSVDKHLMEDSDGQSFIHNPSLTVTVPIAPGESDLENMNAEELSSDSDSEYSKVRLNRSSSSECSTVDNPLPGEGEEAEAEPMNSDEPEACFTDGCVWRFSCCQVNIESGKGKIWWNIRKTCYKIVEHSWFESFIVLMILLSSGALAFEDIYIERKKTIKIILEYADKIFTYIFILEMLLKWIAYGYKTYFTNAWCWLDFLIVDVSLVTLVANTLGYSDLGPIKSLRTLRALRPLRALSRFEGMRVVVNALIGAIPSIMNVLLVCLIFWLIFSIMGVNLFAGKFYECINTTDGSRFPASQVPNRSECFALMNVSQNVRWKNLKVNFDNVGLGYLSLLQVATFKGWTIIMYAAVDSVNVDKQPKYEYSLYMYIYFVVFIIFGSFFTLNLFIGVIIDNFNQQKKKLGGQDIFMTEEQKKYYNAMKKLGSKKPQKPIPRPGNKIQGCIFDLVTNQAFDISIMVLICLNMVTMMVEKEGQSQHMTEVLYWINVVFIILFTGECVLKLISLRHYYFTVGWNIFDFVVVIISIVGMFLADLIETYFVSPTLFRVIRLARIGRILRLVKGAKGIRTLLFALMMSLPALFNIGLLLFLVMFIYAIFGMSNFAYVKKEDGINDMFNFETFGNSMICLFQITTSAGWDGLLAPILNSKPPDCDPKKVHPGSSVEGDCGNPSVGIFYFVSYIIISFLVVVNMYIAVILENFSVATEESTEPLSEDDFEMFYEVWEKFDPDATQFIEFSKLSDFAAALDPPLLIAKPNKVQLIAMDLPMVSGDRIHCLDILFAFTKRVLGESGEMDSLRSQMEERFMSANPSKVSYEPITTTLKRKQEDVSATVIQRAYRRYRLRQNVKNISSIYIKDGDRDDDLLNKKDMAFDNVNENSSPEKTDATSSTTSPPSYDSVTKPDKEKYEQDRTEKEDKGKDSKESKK

| Compound | IC50 [2] | IC50 [1] |
| --- | --- | --- |
| 5-Amino-1-(2-(2-methoxyethoxy)phenyl)-3-methyl-N-(2-methyl-4-(trifluoromethyl)phenyl)-1H-pyrazole-4-carboxamide [Example 115] | 0.7 µM | > 33 µM |
| Cc1c(F)cccc1-n1ncc(C(=O)N2CCc3cc(Cl)ccc32)c1N [Example 57, (5-Amino-1-(3-fluoro-2-methylphenyl)-1H-pyrazol-4-yl)(5-chloroindolin-1-yl)methanone] | 0.8 µM | > 33 µM |
| COc1ccccc1-n1ncc(C(=O)N2CCc3cc(Cl)ccc32)c1N [Example 61, (5-Amino-1-(2-methoxyphenyl)-1H-pyrazol-4-yl)(5-chloroindolin-1-yl)methanone] | 0.9 µM | 28 µM |
| Cc1c(F)cccc1-n1nnc(C(=O)Nc2ccc(Cl)cn2)c1N [Example 75, 5-Amino-N-(5-chloropyridin-2-yl)-1-(3-fluoro-2-methylphenyl)-1H-1,2,3-triazole-4-carboxamide] | 0.8 µM | > 33 µM |
| CCc1ccccc1-n1ncc(C(=O)Nc2ccc(OCC(F)(F)F)cn2)c1N [Example 140, 5-Amino-1-(2-ethylphenyl)-N-(5-(2,2,2-trifluoroethoxy)pyridin-2-yl)-1H-pyrazole-4-carboxamide] | 1 µM | > 33 µM |
| Nc1c(C(=O)Nc2ccc(Cl)cn2)cnn1-c1ccccc1-c1cccnc1 [Example 196, 5-Amino-N-(5-chloropyridin-2-yl)-1-(2-(pyridin-3-yl)phenyl)-1H-pyrazole-4-carboxamide] | 0.7 µM | 17 µM |
| COc1cc(-c2ccccc2-n2ncc(C(=O)Nc3ccc(Cl)cn3)c2N)ccn1 [Example 197, 5-Amino-N-(5-chloropyridin-2-yl)-1-(2-(2-methoxypyridin-4-yl)phenyl)-1H-pyrazole-4-carboxamide] | 1 µM | > 33 µM |
| COc1ccccc1-n1cnc(C(=O)Nc2ccc(Cl)cc2)c1N [Example 254, 5-Amino-N-(4-chlorophenyl)-1-(2-methoxyphenyl)-1H-imidazole-4-carboxamide] | 1.9 µM | > 33 µM |

More lines, main results first:

| IC50 [2] | Compound | IC50 [1] |
| --- | --- | --- |
| 0.7 µM | COc1ccccc1-n1ncc(C(=O)Nc2ccc(Cl)cc2)c1N [Example 1, 5-Amino-N-(4-chlorophenyl)-1-(2-methoxyphenyl)-1H-pyrazole-4-carboxamide] | 21 µM |
| 0.3 µM | Cc1ccccc1-n1ncc(C(=O)Nc2ccc(Cl)cc2F)c1N [Example 7, 5-Amino-N-(4-chloro-2-fluoro-phenyl)-1-(o-tolyl)-1H-pyrazole-4-carboxamide] | > 33 µM |
| 0.7 µM | COCCOc1ccccc1-n1nc(C)c(C(=O)Nc2ccc(C(F)(F)F)cc2F)c1N [Example 38, 5-Amino-N-(2-fluoro-4-(trifluoromethyl)phenyl)-1-(2-(2-methoxyethoxy)phenyl)-3-methyl-1H-pyrazole-4-carboxamide] | > 33 µM |
| 0.5 µM | Cc1c(F)cccc1-n1ncc(C(=O)Nc2ccc(OC(F)(F)F)cn2)c1N [Example 55, 5-Amino-1-(3-fluoro-2-methylphenyl)-N-(5-(trifluoromethoxy)pyridin-2-yl)-1H-pyrazole-4-carboxamide] | > 33 µM |
| 0.4 µM | CCc1nn(-c2ccccc2OC)c(N)c1C(=O)Nc1ccc(C(F)(F)F)cn1 [Example 114, 5-Amino-3-ethyl-1-(2-methoxyphenyl)-N-(5-(trifluoromethyl)pyridin-2-yl)-1H-pyrazole-4-carboxamide] | > 33 µM |
| 0.6 µM | Cc1nn(-c2cccc(F)c2C)c(N)c1C(=O)Nc1ccc(Cl)cn1 [Example 137, 5-Amino-N-(5-chloro-2-pyridyl)-1-(3-fluoro-2-methylphenyl)-3-methyl-pyrazole-4-carboxamide] | > 33 µM |
| 0.3 µM | CCc1nn(-c2cccc(F)c2C)c(N)c1C(=O)Nc1ccc(C(F)(F)F)cn1 [Example 143, 5-Amino-3-ethyl-1-(3-fluoro-2-methylphenyl)-N-[5-trifluoromethyl-2-pyridyl]pyrazole-4-carboxamide] | 10 µM |
| 0.4 µM | Cc1nn(-c2ccccc2F)c(N)c1C(=O)Nc1ccc(C(F)(F)F)cn1 [Example 153, 5-Amino-1-(2-fluorophenyl)-3-methyl-N-(5-(trifluoromethyl)pyridin-2-yl)-1H-pyrazole-4-carboxamide] | > 33 µM |
| 0.3 µM | Nc1c(C(=O)Nc2ccc(C(F)(F)F)cn2)cnn1-c1ccccc1O [Example 208, 5-Amino-1-(2-hydroxyphenyl)-N-(5-(trifluoromethyl)pyridin-2-yl)-1H-pyrazole-4-carboxamide] | > 33 µM |
| 0.2 µM | Cc1c(F)cccc1-n1cnc(C(=O)Nc2ccc(C(F)(F)F)cn2)c1N [Example 251, 5-Amino-1-(3-fluoro-2-methylphenyl)-N-(5-(trifluoromethyl)pyridin-2-yl)-1H-imidazole-4-carboxamide] |  |
